pEC50: −log10 of the molar value.

The test system of the test is HBV. Description: HBV replication inhibition assay (BDNA assay) in HepG2.2.15 cells. It is filed as cell-based, Hepatitis B virus. To be noted: 6 days, encapsidated HBV DNA in supernatant. The protocol:
HBV replication inhibition by the disclosed compounds were determined in cells infected or transfected with HBV or cells with stably integrated HBV, such as HepG2.2.15 cells (Sells et al. 1987). In this example, HepG2.2.15 cells were maintained in cell culture medium containing 10% fetal bovine serum (FBS), Geneticin, L-glutamine, penicillin and streptomycin. HepG2.2.15 cells were seeded in 96-well plates at a density of 40,000 cells/well and were treated with serially diluted compounds at a final DMSO concentration of 0.5% either alone or in combination by adding drugs in a checker box format. Cells were incubated with compounds for three days, after which medium was removed and fresh medium containing compounds was added to cells and incubated for another three days. At day 6, supernatant was removed and treated with DNase at 37° C. for 60 minutes, followed by enzyme inactivation at 75° C. for 15 minutes. Encapsidated HBV DNA was released from the virions and covalently linked HBV polymerase by incubating in lysis buffer (Affymetrix QS0010) containing 2.5 μg proteinase K at 50° C. for 40 minutes. HBV DNA was denatured by addition of 0.2 M NaOH and detected using a branched DNA (BDNA) QuantiGene assay kit according to manufacturer recommendation (Affymetrix). HBV DNA levels were also quantified using qPCR, based on amplification of encapsidated HBV DNA extraction with QuickExtraction Solution (Epicentre Biotechnologies) and amplification of HBV DNA using HBV specific PCR probes that can hybridize to HBV DNA and a fluorescently labeled probe for quantitation. In addition, cell viability of HepG2.2.15 cells incubated with test compounds alone or in combination was determined by using CellTitre-Glo reagent according to the manufacturer protocol (Promega). The mean background signal from wells containing only culture medium was subtracted from all other samples, and percent inhibition at each compound concentration was calculated by normalizing to signals from HepG2.2.15 cells treated with 0.5% DMSO using equation E1.
% inhibition(DMSOave−Xi)DMSOave×100% E1:
where DMSOave is the mean signal calculated from the wells that were treated with DMSO control (0% inhibition control) and Xi is the signal measured from the individual wells. EC50 values, effective concentrations that achieved 50% inhibitory effect, were determined by non-linear fitting using Graphpad Prism software (San Diego, Calif.) and equation E2.
Y=Ymin+(Ymax−Ymin)/(1+10(Log EC50−X)×HillSlope) E2:
where Y represents percent inhibition values and X represents the logarithm of compound concentrations.
Selected disclosed compounds were assayed in the HBV replication assay (BDNA assay), as described above, and a representative group of these active compounds is shown in Table 5.

A word on the pEC50: it is −log10 of the EC50, conventionally taken in molar units. `C[C@@H]1Cc2nn3c(c2CN1C(=O)Nc1ccc(F)c(C#N)c1)C(F)(F)CC[C@H](CO)C3` (relative stereo) [Example 75]: where the note is “Hepatitis B virus, HepG2.2.15, 144 h”, the pEC50 is 8.30.
For `N#Cc1cc(NC(=O)N2CCc3nn4c(c3C2)C(F)(F)CCC(CO)C4)ccc1F` (single isomer, unassigned) [Example 19, (S*)—N-(3-Cyano-4-fluorophenyl)-11,11-difluoro-8-(hydroxymethyl)-3,4,8,9,10,11-hexahydro-1H-pyrido[4′,3′:3,4]pyrazolo[1,5-a]azepine-2(7H)-carboxamide], the pEC50 was 8.40.
As to `O=C(Nc1ccc(F)c(C(F)(F)F)c1)N1CCc2nn3c(c2C1)C(F)(F)CCC(CO)C3` (single isomer, unassigned) [Example 20, (S*)-11,11-Difluoro-N-(4-fluoro-3-(trifluoromethyl)phenyl)-8-(hydroxymethyl)-3,4,8,9,10,11-hexahydro-1H-pyrido[4′,3′:3,4]pyrazolo[1,5-a]azepine-2(7H)-carboxamide], the pEC50 was 8.40.
`N#Cc1c(F)ccc(NC(=O)N2CCc3nn4c(c3C2)C(F)(F)CCC(CO)C4)c1F` (single isomer, unassigned) [Example 21, (S*)—N-(3-Cyano-2,4-difluorophenyl)-11,11-difluoro-8-(hydroxymethyl)-3,4,8,9,10,11-hexahydro-1H-pyrido[4′,3′:3,4]pyrazolo[1,5-a]azepine-2(7H)-carboxamide]: the pEC50 is 9.00.
On the same count and under the same terms, the value for `O=C(Nc1ccnc(Br)c1F)N1CCc2nn3c(c2C1)C(F)(F)CCC(CO)C3` (single isomer, unassigned) [Example 22, (S*)—N-(2-Bromo-3-fluoropyridin-4-yl)-11,11-difluoro-8-(hydroxymethyl)-3,4,8,9,10,11-hexahydro-1H-pyrido[4′,3′:3,4]pyrazolo[1,5-a]azepine-2(7H)-carboxamide] was 8.40.
`N#Cc1cc(NC(=O)N2CCc3nn4c(c3C2)C(F)(F)CCC(CO)C4)ccc1F` (single isomer, unassigned) [Example 23, (R*)—N-(3-Cyano-4-fluorophenyl)-11,11-difluoro-8-(hydroxymethyl)-3,4,8,9,10,11-hexahydro-1H-pyrido[4′,3′:3,4]pyrazolo[1,5-a]azepine-2(7H)-carboxamide]: the pEC50 is 7.74.
`O=C(Nc1ccc(F)c(C(F)(F)F)c1)N1CCc2nn3c(c2C1)C(F)(F)CCC(CO)C3` (single isomer, unassigned) [Example 24, (R*)-11,11-Difluoro-N-(4-fluoro-3-(trifluoromethyl)phenyl)-8-(hydroxymethyl)-3,4,8,91011-hexahydro-1H-pyrido[4′,3′:3,4]pyrazolo[1,5-a]azepine-2(7H)-carboxamide]: the pEC50 was 7.46.
Regarding `N#Cc1c(F)ccc(NC(=O)N2CCc3nn4c(c3C2)C(F)(F)CCC(CO)C4)c1F` (single isomer, unassigned) [Example 25, (R*)—N-(3-Cyano-2,4-difluorophenyl)-11,11-difluoro-8-(hydroxymethyl)-3,4,8,9,10,11-hexahydro-1H-pyrido[4′,3′:3,4]pyrazolo[1,5-a]azepine-2(7H)-carboxamide], the pEC50 was 7.47.
In the case of `O=C(Nc1ccnc(Br)c1F)N1CCc2nn3c(c2C1)C(F)(F)CCC(CO)C3` (single isomer, unassigned) [Example 26, (R*)—N-(2-Bromo-3-fluoropyridin-4-yl)-11,11-difluoro-8-(hydroxymethyl)-3,4,8,9,10,11-hexahydro-1H-pyrido[4′,3′:3,4]pyrazolo[1,5-a]azepine-2(7H)-carboxamide], the pEC50 was 7.60.
With `N#Cc1cc(NC(=O)N2CCc3nn4c(c3C2)C(F)(F)CCC(COCC(F)F)C4)ccc1F` (single isomer, unassigned) [Example 27, (S*)—N-(3-Cyano-4-fluorophenyl)-8-((2,2-difluoroethoxy)methyl)-11,11-difluoro-3,4,8,9,10,11-hexahydro-1H-pyrido[4′,3′:3,4]pyrazolo[1,5-a]azepine-2(7H)-carboxamide], the negative-log EC50 (pEC50) is 8.22.
Consider `O=C(Nc1ccc(F)c(C(F)(F)F)c1)N1CCc2nn3c(c2C1)C(F)(F)CCC(COCC(F)F)C3` (single isomer, unassigned) [Example 28, (S*)-8-((2,2-Difluoroethoxy)methyl)-11,11-difluoro-N-(4-fluoro-3-(trifluoromethyl)phenyl)-3,4,8,9,10,11-hexahydro-1H-pyrido[4′,3′:3,4]pyrazolo[1,5-a]azepine-2(7H)-carboxamide], for which the pEC50 was 7.66.
Consider `N#Cc1cc(NC(=O)N2CCc3nn4c(c3C2)C(F)(F)CCC(COCC(F)F)C4)ccc1F` (single isomer, unassigned) [Example 29, (R*)—N-(3-Cyano-4-fluorophenyl)-8-((2,2-difluoroethoxy)methyl)-11,11-difluoro-3,4,8,9,10,11-hexahydro-1H-pyrido[4′,3′:3,4]pyrazolo[1,5-a]azepine-2(7H)-carboxamide], for which the pEC50 is 7.11.
In the case of `O=C(Nc1ccc(F)c(C(F)(F)F)c1)N1CCc2nn3c(c2C1)C(F)(F)CCC(COCC(F)F)C3` (single isomer, unassigned) [Example 30, (R*)-8-((2,2-Difluoroethoxy)methyl)-11,11-difluoro-N-(4-fluoro-3-(trifluoromethyl)phenyl)-3,4,8,9,10,11-hexahydro-1H-pyrido[4′,3′:3,4]pyrazolo[1,5-a]azepine-2(7H)-carboxamide], the pEC50 was 6.57.
Consider `N#Cc1cc(NC(=O)N2CCc3nn4c(c3C2)C(F)(F)CCC(O)(COCC(F)F)C4)ccc1F` (single isomer, unassigned) [Example 31, (R*)—N-(3-Cyano-4-fluorophenyl)-8-((2,2-difluoroethoxy)methyl)-11,11-difluoro-8-hydroxy-3,4,8,9,10,11-hexahydro-1H-pyrido[4′,3′:3,4]pyrazolo[1,5-a]azepine-2(7H)-carboxamide], for which the pEC50 is 7.38.
As for `O=C(Nc1ccnc(C(F)F)c1F)N1CCc2nn3c(c2C1)C(F)(F)CCC(O)(COCC(F)F)C3` (single isomer, unassigned) [Example 33, (R*)-8-((2,2-Difluoroethoxy)methyl)-N-(2-(difluoromethyl)-3-fluoropyridin-4-yl)-11,11-difluoro-8-hydroxy-3,4,8,9,10,11-hexahydro-1H-pyrido[4′,3′:3,4]pyrazolo[1,5-a]azepine-2(7H)-carboxamide], the pEC50 is 6.45.
For `N#Cc1cc(NC(=O)N2CCc3nn4c(c3C2)C(F)(F)CCC(O)(COCC(F)F)C4)ccc1F` (single isomer, unassigned) [Example 34, (S*)—N-(3-Cyano-4-fluorophenyl)-8-((2,2-difluoroethoxy)methyl)-11,11-difluoro-8-hydroxy-3,4,8,9,10,11-hexahydro-1H-pyrido[4′,3′:3,4]pyrazolo[1,5-a]azepine-2(7H)-carboxamide], the pEC50 was 7.77.
In the case of `O=C(Nc1ccnc(Br)c1F)N1CCc2nn3c(c2C1)C(F)(F)CCC(O)(COCC(F)F)C3` (single isomer, unassigned) [Example 35, (S*)—N-(2-Bromo-3-fluoropyridin-4-yl)-8-((2,2-difluoroethoxy)methyl)-11,11-difluoro-8-hydroxy-3,4,8,9,10,11-hexahydro-1H-pyrido[4′,3′:3,4]pyrazolo[1,5-a]azepine-2(7H)-carboxamide], the pEC50 is 7.01.
